Reference: PMC11831560, “Development of the Pyrido[2,3-d]pyrimidin-7(8H)-one Scaffold toward Potent and Selective NUAK1 Inhibitors” (ACS Medicinal Chemistry Letters, 2025)

How the values were obtained:
Test in all cases: Kinase panel radiometric filter binding (33P-ATP)
Format in all cases: biochemical
Design in all cases: dose or concentration left out as unconfirmed
AMPK (hum) = AMPK (hum) (Homo sapiens, UniProt Q13131)
Procedure: (§1) Table S4: AMPKA kinase activity data (ADP-Glo assay)
(§2) Compound pIC50 (Fold selectivity
(§3) Table S5. Kinase selectivity screening for 9 and 24 at 1 µM against a general kinase panel of 140 targets
(§4) in radiometric filter binding assay using 33P-γ−ATP at the MRC PPU International Centre for Kinase
(§5) Profiling, University of Dundee. pIC50 values were determined for compounds with <20% activity
(§6) Kinase activity s.d. pIC50 activity s.d. pIC50

Aurora A = Aurora A (Homo sapiens, UniProt O14965)
Procedure: as §1, §2, §3, §4, §5, §6

Aurora B = Aurora B (Homo sapiens, UniProt Q96GD4)
Procedure: as §1, §2, §3, §4, §5, §6

BRK = BRK (Homo sapiens, UniProt Q13882)
Procedure: as §1, §2, §3, §4, §5, §6

CAMK1 = CAMK1 (Homo sapiens, UniProt Q14012)
Procedure: as §1, §2, §3, §4, §5, §6

CDK9-Cyclin T1 = CDK9-Cyclin T1 (Homo sapiens, UniProt P50750)
Procedure: as §1, §2, §3, §4, §5, §6

CHK2 = CHK2 (Homo sapiens, UniProt O96017)
Sequence of CHK2 (O96017 whole entry): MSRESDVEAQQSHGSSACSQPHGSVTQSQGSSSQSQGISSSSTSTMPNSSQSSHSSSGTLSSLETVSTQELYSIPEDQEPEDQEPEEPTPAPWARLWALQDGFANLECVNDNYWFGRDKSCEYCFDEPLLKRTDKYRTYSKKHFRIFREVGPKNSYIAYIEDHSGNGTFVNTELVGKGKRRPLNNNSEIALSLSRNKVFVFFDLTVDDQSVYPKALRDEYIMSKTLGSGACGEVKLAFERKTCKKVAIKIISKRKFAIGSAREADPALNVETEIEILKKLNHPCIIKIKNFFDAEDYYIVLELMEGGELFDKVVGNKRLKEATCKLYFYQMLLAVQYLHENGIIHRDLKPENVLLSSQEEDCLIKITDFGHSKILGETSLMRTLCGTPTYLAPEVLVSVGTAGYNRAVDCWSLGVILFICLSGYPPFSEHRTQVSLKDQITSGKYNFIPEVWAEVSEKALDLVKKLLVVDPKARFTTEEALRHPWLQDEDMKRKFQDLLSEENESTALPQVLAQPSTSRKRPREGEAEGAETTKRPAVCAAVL
Procedure: as §1, §2, §3, §4, §5, §6

CSK = CSK (Homo sapiens, UniProt P41240)
Sequence of CSK (P41240 whole entry): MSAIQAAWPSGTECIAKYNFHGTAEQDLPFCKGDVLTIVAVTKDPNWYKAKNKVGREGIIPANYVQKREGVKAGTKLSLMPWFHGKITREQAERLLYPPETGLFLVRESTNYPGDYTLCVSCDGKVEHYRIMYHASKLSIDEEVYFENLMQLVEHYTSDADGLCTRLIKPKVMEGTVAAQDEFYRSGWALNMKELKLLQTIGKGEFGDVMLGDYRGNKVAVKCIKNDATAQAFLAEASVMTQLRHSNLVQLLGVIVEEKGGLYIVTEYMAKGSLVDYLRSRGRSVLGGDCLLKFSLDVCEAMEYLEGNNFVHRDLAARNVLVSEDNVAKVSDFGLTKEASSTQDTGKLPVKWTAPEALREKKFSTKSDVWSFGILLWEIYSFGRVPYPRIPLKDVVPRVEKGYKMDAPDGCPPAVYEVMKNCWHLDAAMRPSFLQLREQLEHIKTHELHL
Procedure: as §1, §2, §3, §4, §5, §6

DYRK3 = DYRK3 (Homo sapiens, UniProt O43781)
Sequence of DYRK3 (O43781 whole entry): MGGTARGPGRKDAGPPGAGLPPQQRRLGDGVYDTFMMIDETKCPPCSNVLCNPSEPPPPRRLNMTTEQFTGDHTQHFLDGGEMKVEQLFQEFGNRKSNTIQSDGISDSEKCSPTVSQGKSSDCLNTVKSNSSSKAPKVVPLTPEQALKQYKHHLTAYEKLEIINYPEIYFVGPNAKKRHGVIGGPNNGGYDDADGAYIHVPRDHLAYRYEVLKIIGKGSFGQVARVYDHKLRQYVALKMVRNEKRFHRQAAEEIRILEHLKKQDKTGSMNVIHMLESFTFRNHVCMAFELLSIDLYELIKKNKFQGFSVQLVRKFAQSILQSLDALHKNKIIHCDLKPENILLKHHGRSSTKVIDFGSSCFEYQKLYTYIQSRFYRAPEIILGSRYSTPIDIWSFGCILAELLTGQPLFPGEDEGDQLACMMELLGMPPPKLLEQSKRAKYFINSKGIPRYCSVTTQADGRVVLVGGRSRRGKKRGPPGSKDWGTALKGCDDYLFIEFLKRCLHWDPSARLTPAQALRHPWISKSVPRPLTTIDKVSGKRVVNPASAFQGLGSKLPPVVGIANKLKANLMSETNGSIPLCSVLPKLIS
Procedure: as §1, §2, §3, §4, §5, §6

EIF2AK3 = EIF2AK3 (Homo sapiens, UniProt Q9NZJ5)
Procedure: as §1, §2, §3, §4, §5, §6

EPH-B1 = EPH-B1 (Homo sapiens, UniProt P54762)
Sequence of EPH-B1 (P54762 18-984): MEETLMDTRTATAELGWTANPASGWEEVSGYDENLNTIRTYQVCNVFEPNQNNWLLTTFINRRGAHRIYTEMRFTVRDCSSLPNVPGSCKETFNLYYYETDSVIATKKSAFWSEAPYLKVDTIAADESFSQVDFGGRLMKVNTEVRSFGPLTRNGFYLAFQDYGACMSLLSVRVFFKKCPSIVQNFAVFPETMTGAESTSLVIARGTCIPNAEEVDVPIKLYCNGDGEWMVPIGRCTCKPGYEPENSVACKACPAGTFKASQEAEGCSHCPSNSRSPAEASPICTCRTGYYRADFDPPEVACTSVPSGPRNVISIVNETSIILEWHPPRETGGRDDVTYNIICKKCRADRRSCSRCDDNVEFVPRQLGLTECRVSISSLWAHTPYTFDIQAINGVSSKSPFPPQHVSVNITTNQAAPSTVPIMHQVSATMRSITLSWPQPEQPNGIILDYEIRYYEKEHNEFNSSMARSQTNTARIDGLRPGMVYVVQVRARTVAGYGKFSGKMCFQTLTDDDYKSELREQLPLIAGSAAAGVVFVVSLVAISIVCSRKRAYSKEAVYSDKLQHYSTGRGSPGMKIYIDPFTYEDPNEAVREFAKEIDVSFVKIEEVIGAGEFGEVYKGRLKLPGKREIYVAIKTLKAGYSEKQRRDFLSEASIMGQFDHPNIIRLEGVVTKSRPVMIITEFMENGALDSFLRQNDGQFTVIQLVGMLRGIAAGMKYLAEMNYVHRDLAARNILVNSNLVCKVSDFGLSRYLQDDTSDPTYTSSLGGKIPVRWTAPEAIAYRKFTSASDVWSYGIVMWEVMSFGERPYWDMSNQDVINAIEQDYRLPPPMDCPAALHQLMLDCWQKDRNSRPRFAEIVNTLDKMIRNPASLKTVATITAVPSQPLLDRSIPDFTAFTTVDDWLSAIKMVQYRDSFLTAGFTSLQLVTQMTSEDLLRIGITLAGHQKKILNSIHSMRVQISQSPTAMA
Procedure: as §1, §2, §3, §4, §5, §6

ERK1 = ERK1 (Homo sapiens, UniProt P27361)
Sequence of ERK1 (P27361 whole entry): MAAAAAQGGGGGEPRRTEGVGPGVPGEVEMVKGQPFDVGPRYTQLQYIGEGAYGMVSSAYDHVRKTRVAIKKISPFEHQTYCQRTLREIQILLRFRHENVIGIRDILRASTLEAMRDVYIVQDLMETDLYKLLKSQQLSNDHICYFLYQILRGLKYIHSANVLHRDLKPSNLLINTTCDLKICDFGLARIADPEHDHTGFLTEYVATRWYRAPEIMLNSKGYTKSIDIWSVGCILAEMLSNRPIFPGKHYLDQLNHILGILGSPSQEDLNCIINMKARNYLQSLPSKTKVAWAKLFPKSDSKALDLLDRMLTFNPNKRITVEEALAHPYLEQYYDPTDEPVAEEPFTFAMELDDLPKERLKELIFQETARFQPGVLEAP
Procedure: as §1, §2, §3, §4, §5, §6

ERK5 = ERK5 (Homo sapiens, UniProt Q13164)
Procedure: as §1, §2, §3, §4, §5, §6

ERK8 = ERK8 (Homo sapiens, UniProt Q8TD08)
Procedure: as §1, §2, §3, §4, §5, §6

FGF-R1 = FGF-R1 (Homo sapiens, UniProt P11362)
Procedure: as §1, §2, §3, §4, §5, §6

GCK = GCK (Homo sapiens, UniProt Q12851)
Procedure: as §1, §2, §3, §4, §5, §6

HIPK2 = HIPK2 (Homo sapiens, UniProt Q9H2X6)
Procedure: as §1, §2, §3, §4, §5, §6

IKKe = IKKe (Homo sapiens, UniProt Q14164)
Sequence of IKKe (Q14164 whole entry): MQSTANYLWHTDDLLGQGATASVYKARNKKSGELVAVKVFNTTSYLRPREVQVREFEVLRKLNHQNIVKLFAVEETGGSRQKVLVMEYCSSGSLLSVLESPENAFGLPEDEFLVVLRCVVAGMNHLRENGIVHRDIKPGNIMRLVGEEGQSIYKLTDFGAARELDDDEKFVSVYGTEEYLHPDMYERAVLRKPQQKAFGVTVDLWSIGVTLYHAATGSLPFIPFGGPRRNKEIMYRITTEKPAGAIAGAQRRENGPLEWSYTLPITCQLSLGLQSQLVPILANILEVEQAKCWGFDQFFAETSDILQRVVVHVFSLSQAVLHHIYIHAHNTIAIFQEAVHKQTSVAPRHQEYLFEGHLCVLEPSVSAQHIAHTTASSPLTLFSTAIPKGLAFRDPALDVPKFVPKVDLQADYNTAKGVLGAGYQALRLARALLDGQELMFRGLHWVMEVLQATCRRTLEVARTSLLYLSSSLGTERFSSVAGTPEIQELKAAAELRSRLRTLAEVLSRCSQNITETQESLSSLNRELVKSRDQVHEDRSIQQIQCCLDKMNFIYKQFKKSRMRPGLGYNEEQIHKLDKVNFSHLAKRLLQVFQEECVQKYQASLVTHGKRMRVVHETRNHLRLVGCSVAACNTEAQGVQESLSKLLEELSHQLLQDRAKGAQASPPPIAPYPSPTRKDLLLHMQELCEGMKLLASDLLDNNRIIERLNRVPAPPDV
Procedure: as §1, §2, §3, §4, §5, §6

JNK3 = JNK3 (Homo sapiens, UniProt P53779)
Procedure: as §1, §2, §3, §4, §5, §6

MAP4K3 = MAP4K3 (Homo sapiens, UniProt Q8IVH8)
Procedure: as §1, §2, §3, §4, §5, §6

MAPKAP-K2 = MAPKAP-K2 (Homo sapiens, UniProt P49137)
Procedure: as §1, §2, §3, §4, §5, §6

MAPKAP-K3 = MAPKAP-K3 (Homo sapiens, UniProt Q16644)
Sequence of MAPKAP-K3 (Q16644 whole entry): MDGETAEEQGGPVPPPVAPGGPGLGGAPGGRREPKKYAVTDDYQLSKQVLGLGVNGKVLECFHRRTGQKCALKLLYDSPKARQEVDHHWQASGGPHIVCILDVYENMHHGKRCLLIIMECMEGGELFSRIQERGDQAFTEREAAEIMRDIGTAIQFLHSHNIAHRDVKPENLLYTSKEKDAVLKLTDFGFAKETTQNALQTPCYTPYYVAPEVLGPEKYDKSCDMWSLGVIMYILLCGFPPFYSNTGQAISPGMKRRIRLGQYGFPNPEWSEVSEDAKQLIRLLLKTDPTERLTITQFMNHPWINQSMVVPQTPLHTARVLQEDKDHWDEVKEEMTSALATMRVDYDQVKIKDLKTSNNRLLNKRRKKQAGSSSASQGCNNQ
Procedure: as §1, §2, §3, §4, §5, §6

MSK1 = MSK1 (Homo sapiens, UniProt O75582)
Sequence of MSK1 (O75582 whole entry): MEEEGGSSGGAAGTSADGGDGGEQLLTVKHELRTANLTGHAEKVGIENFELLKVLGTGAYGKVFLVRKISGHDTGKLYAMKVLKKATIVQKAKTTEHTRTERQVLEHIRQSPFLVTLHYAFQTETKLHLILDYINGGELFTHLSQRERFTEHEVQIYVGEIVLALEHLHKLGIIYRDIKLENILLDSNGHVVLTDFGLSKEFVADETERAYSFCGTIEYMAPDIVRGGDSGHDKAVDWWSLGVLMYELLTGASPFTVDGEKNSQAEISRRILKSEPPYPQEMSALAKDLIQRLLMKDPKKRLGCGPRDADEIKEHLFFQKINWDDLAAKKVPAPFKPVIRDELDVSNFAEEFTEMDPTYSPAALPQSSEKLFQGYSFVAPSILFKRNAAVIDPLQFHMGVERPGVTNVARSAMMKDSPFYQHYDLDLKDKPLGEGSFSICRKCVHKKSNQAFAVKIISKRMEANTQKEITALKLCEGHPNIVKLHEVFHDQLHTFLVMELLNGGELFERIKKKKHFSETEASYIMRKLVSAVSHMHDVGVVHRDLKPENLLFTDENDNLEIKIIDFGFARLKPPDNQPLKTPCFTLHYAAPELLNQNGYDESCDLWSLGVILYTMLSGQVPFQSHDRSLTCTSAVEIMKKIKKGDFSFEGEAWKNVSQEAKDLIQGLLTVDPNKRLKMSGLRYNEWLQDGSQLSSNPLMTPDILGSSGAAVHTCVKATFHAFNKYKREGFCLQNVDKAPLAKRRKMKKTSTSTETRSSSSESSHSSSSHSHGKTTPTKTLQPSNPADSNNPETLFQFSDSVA
Procedure: as §1, §2, §3, §4, §5, §6

PHK = system: PHK
Procedure: as §1, §2, §3, §4, §5, §6

PINK = system: PINK
Procedure: as §1, §2, §3, §4, §5, §6

PKBb = PKBb (Homo sapiens, UniProt P31751)
Procedure: as §1, §2, §3, §4, §5, §6

PKCγ = PKCγ (Homo sapiens, UniProt P05129)
Procedure: as §1, §2, §3, §4, §5, §6

PRK2 = PRK2 (Homo sapiens, UniProt Q16513)
Procedure: as §1, §2, §3, §4, §5, §6

RIPK2 = RIPK2 (Homo sapiens, UniProt O43353)
Procedure: as §1, §2, §3, §4, §5, §6

RSK1 = RSK1 (Homo sapiens, UniProt Q15418)
Procedure: as §1, §2, §3, §4, §5, §6

SGK1 = SGK1 (Homo sapiens, UniProt O00141)
Procedure: as §1, §2, §3, §4, §5, §6

SIK3 = SIK3 (Homo sapiens, UniProt Q9Y2K2)
Procedure: as §1, §2, §3, §4, §5, §6

SRPK1 = SRPK1 (Homo sapiens, UniProt Q96SB4)
Procedure: as §1, §2, §3, §4, §5, §6

TGFBR1 = TGFBR1 (Homo sapiens, UniProt P36897)
Procedure: as §1, §2, §3, §4, §5, §6

TSSK1 = TSSK1 (Homo sapiens, UniProt Q9BXA7)
Procedure: as §1, §2, §3, §4, §5, §6

ULK1 = ULK1 (Homo sapiens, UniProt O75385)
Procedure: as §1, §2, §3, §4, §5, §6

| Compound | % activity remaining (AMPK (hum)) | % activity remaining (Aurora A) | % activity remaining (Aurora B) | % activity remaining (BRK) | % activity remaining (CAMK1) | % activity remaining (CDK9-Cyclin T1) | % activity remaining (CHK2) | % activity remaining (CSK) | % activity remaining (DYRK3) | % activity remaining (EIF2AK3) | % activity remaining (EPH-B1) | % activity remaining (ERK1) | % activity remaining (ERK5) | % activity remaining (ERK8) | % activity remaining (FGF-R1) | % activity remaining (GCK) | % activity remaining (HIPK2) | % activity remaining (IKKe) | % activity remaining (JNK3) | % activity remaining (MAP4K3) | also measured |
| --- | --- | --- | --- | --- | --- | --- | --- | --- | --- | --- | --- | --- | --- | --- | --- | --- | --- | --- | --- | --- | --- |
| Cc1cc(=O)n(C2CCCC2)c2nc(Nc3ccc(N4CC5CC(C4)N5C)cc3)ncc12 [Compound 9] | 19% | 52% | 61% | 67% | 102% | 67% | 72% | 104% | 74% | 41% | 51% | 97% | 80% | 47% | 56% | 76% | 54% | 84% | 30% | 29% | % activity remaining (MAPKAP-K2): 110%; % activity remaining (MAPKAP-K3): 84%; % activity remaining (MSK1): 61%; % activity remaining (PHK): 56%; % activity remaining (PINK): 96%; % activity remaining (PKBb): 99%; % activity remaining (PKCγ): 72%; % activity remaining (PRK2): 75%; % activity remaining (RIPK2): 78%; % activity remaining (RSK1): 41%; % activity remaining (SGK1): 96%; % activity remaining (SIK3): 85%; % activity remaining (SRPK1): 111%; % activity remaining (TGFBR1): 92%; % activity remaining (TSSK1): 56%; % activity remaining (ULK1): 23% |
| CN1C2CC1CN(c1ccc(Nc3ncc4ccn(CC5CCOCC5)c4n3)cc1)C2 [Compound 24] | 81% | 54% | 64% | 58% | 129% | 56% | 98% | 97% | 65% | 86% | 87% | 98% | 102% | 76% | 81% | 89% | 85% | 93% | 107% | 62% | % activity remaining (MAPKAP-K2): 95%; % activity remaining (MAPKAP-K3): 109%; % activity remaining (MSK1): 84%; % activity remaining (PHK): 92%; % activity remaining (PINK): 99%; % activity remaining (PKBb): 93%; % activity remaining (PKCγ): 81%; % activity remaining (PRK2): 71%; % activity remaining (RIPK2): 73%; % activity remaining (RSK1): 74%; % activity remaining (SGK1): 72%; % activity remaining (SIK3): 74%; % activity remaining (SRPK1): 79%; % activity remaining (TGFBR1): 75%; % activity remaining (TSSK1): 77%; % activity remaining (ULK1): 77% |
